Experimental data: ChEMBL document CHEMBL1148453, “Parallel solution-phase synthesis of conformationally restricted congeners of pentamidine and evaluation of their antiplasmodial activities” (J Med Chem, 2004)

Tests used:
Calf thymus DNA = test: Binding affinity for calf thymus DNA by measuring the change in midpoint of the thermal denaturation curves; assay type: nucleic-acid assay; conditions: Bos taurus
Nucleic Acid = test: Binding affinity for poly dA-dT DNA by measuring the change in midpoint of the thermal denaturation curves; assay type: nucleic-acid assay
Plasmodium falciparum [1] = test: microbe, parasite or virus in culture
Description: In vitro antiparasitic activity against chloroquine-resistant Plasmodium falciparum Indochina I

Plasmodium falciparum [2] = test: microbe, parasite or virus in culture; remark: listed apart in the source
Description: In vitro antiparasitic activity against chloroquine-sensitive Plasmodium falciparum Haiti 135

A549 = test: Cytotoxicity against human lung cell carcinoma A549 cell line; assay type: functional, cell-based

`CCOC(=O)c1ccc(N2CCN(c3ccc(C(=O)OCC)cc3)CC2)cc1` showed a ΔTm (Calf thymus DNA) of 0.6 °C, a ΔTm (Nucleic Acid) of 0 °C and an IC50 (Plasmodium falciparum [1]) greater than 500 nM. The IC50 (Plasmodium falciparum [2]) was greater than 500 nM.

In the case of `NNC(=O)c1ccc(N2CCN(c3ccc(C(=O)NN)cc3)CC2)cc1`, the ΔTm (Calf thymus DNA) is reported as 0.1 °C, the ΔTm (Nucleic Acid) is reported as 0 °C and the IC50 (Plasmodium falciparum [1]) is reported as greater than 500 nM. For the same molecule, the IC50 (Plasmodium falciparum [2]) was greater than 500 nM.

Work on `N=C(N)c1ccc(N2CCCN(c3ccc(C(=N)N)cc3)CC2)cc1` yielded a ΔTm (Calf thymus DNA) of 15 °C, a ΔTm (Nucleic Acid) of 23.1 °C and an IC50 (Plasmodium falciparum [1]) of 100 nM. It also gave an IC50 (Plasmodium falciparum [2]) of 150 nM and an IC50 (A549) greater than 204000 nM.

`N=C(N)c1ccc(OCCCCCOc2ccc(C(=N)N)cc2)cc1` [PENTAMIDINE] gave a ΔTm (Calf thymus DNA) of 11.1 °C, a ΔTm (Nucleic Acid) of 20.6 °C and an IC50 (Plasmodium falciparum [1]) of 45 nM. The IC50 (Plasmodium falciparum [2]) was 15 nM and the IC50 (A549) was 40000 nM.

`c1cc(N2CCN(c3ccc(C4OCCO4)cc3)CC2)ccc1C1OCCO1` was tested, and the ΔTm (Calf thymus DNA) was -1.2 °C, the ΔTm (Nucleic Acid) was 0.1 °C and the IC50 (Plasmodium falciparum [1]) was greater than 500 nM. It also gave an IC50 (Plasmodium falciparum [2]) greater than 500 nM.

`c1ccc(N2CCN(c3ccccc3)C2c2ccc(N3CCN(c4ccc(C5N(c6ccccc6)CCN5c5ccccc5)cc4)CC3)cc2)cc1` was tested, and the ΔTm (Calf thymus DNA) was -1.2 °C, the ΔTm (Nucleic Acid) was 0 °C and the IC50 (Plasmodium falciparum [1]) was greater than 500 nM. It also gave an IC50 (Plasmodium falciparum [2]) greater than 500 nM.

`CCN(CC)CCCC(C)Nc1ccnc2cc(Cl)ccc12` (stereo unspecified) [CHLOROQUINE] showed an IC50 (A549) of 40000 nM.

`CN1CCN(C)C1c1ccc(N2CCN(c3ccc(C4N(C)CCN4C)cc3)CC2)cc1` was tested, and the ΔTm (Calf thymus DNA) was 2.4 °C, the ΔTm (Nucleic Acid) was 1.8 °C and the IC50 (Plasmodium falciparum [1]) was greater than 500 nM. It also gave an IC50 (Plasmodium falciparum [2]) greater than 500 nM.
